Among the data in patent publication US20090176776A1, “SMALL MOLECULE INHIBITORS OF HIV-1 CAPSID ASSEMBLY” (UNIVERSITY OF ALABAMA AT BIRMINGHAM, priority 2005, published 2009) are TC50 values, retold here.

The data set has as its system Luc-M7 cells. Nature of the data set: Cell viability of Luc-M7 cells (Cell-Titer Glo). In kind it is cell-based. More on the design: unit: μM. The following applies: mock-infected Luc-M7 cells, 6 days. The method, then:
Anti-HIV Assays (Multiple Round). The inhibitory effects of the tested compounds on HIV-1YU2 replication were determined by the level of luciferase expression after 6 days of infection using Bright-Glo assay (Promega). An amount of 1.5×10^4 Luc-M7 (a gift from Ned Landau) cells per ml were infected with HIV-1YU2 at a multiplicity of infection (MOI) of 3. The HIV-1 infected ([…] compound) or mock-infected (0-300 μM compound) Luc-M7 cells were placed in 96-well culture plates (100 μl/well) with 100 μl of various concentrations of the compounds with 20 μg/ml DEAE Dextran in triplicate and incubated at 37° C. under 5% CO2 at 100% humidity. After 6 days, cell viability was quantified by Cell-Titer Glo assay (Promega). […] On day 5 cell viability was determined in the mock-infected cells. FIGS. 12-18 show the anti-HIV assays for the examples of chemical compounds used according to the invention. After in-vitro assay, the chemical compounds in FIGS. 12-18 were selected for screening for cell viability and toxicity. Jurkat cells assay was used as screening assay. […] After five days, GFP expression was read. Cell viability was monitored with Alamar Blue assay. Luc M7 assay was designed to measure inhibitory activity of the chemical compounds to viral replication. After infection of cells with YU2 virus, plate cells in 96-well plate in the presence of six concentration of compounds in DMSO. At day 6, the number of cells in wells were read with Cell Titer Glo kit or by counting the number of cells infected with Bright Glo kit. 293T cells assay was designed to determine the toxicity. 293T cells were transfected with NL43. After four hours, transfected cells were plated in 96-well plate in DMSO and 2 μM Indinavir. 72 hours later, viral supernatant was collected and plated on J[…].

With `Cc1ncc(C[n+]2csc(CCOC(=O)C3C4CC5CC(C4)CC3C5)c2C)c(N)n1.Cl.[Cl-]` (stereo not shown) [Compound 26], the TC50 was 70.4.
